Experiments:
Experiment in all cases: relative viability (nuclei count vs DMSO), 5 days (fraction); higher = more cells survive
[1] = compound: COc1cc2nc(N3CCCN(C)CC3)nc(NC3CCN(Cc4ccccc4)CC3)c2cc1OC + Cc1nc(NC(=O)N2CCC[C@H]2C(N)=O)sc1-c1ccnc(C(C)(C)C(F)(F)F)c1 [Alpelisib] (partner 2 µM)
Summary of the method: (§1)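 Nuclei were stained with Hoechst during a one-step fixation (final 0.05% Triton X-100, 1% formaldehyde, 1 ug/ml Hoechst) carried out 5 days after dosing, then counted on 4× images. The cells, lung cancer lines in 1536-well plates, had been dosed by pin tool the day after seeding with one drug alone or a fixed anchor-drug dose plus five library-drug doses (not always all listed) in √10 steps. Relative viability is the nuclei count in treated wells divided by that in vehicle wells, and each value is the median of duplicate plates.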

[2] = compound: COc1cc2nc(N3CCCN(C)CC3)nc(NC3CCN(Cc4ccccc4)CC3)c2cc1OC + Nc1ncn([C@H]2C[C@H](O)[C@@H](CO)O2)c(=O)n1 [Decitabine] (partner 2 µM)
Summary of the method: as §1

[3] = compound: Cc1cc([C@@H](C)Nc2ccccc2C(=O)O)c2nc(N3CCOCC3)cc(=O)n2c1 [AZD6482] + CS(=O)(=O)CCNCc1ccc(-c2ccc3ncnc(Nc4ccc(OCc5cccc(F)c5)c(Cl)c4)c3c2)o1 [Lapatinib] (partner 2 µM)
Summary of the method: as §1

[4] = compound: Cc1cc([C@@H](C)Nc2ccccc2C(=O)O)c2nc(N3CCOCC3)cc(=O)n2c1 [AZD6482] + Cc1nc(NC(=O)N2CCC[C@H]2C(N)=O)sc1-c1ccnc(C(C)(C)C(F)(F)F)c1 [Alpelisib] (partner 2 µM)
Summary of the method: as §1

Cell Line | relative viability ([1]; first compound 0.2 µM) | relative viability ([1]; first compound 0.6325 µM) | relative viability ([1]; first compound 2 µM) | relative viability ([1]; first compound 6.325 µM) | relative viability ([2]; first compound 0.2 µM) | relative viability ([2]; first compound 0.6325 µM) | relative viability ([2]; first compound 2 µM) | relative viability ([2]; first compound 6.325 µM) | relative viability ([3]; first compound 0.08 µM) | relative viability ([3]; first compound 0.253 µM) | relative viability ([3]; first compound 0.8 µM) | relative viability ([3]; first compound 2.53 µM) | relative viability ([3]; first compound 8 µM) | relative viability ([4]; first compound 0.08 µM) | relative viability ([4]; first compound 0.253 µM) | relative viability ([4]; first compound 0.8 µM) | relative viability ([4]; first compound 2.53 µM) | relative viability ([4]; first compound 8 µM)
NCI-H596 | 0.616 | 0.458 | 0.498 | 0.44 | 1.13 | 0.934 | 0.958 | 1.03 | 0.722 | 0.953 | 1.06 | 0.873 | 0.853 | 0.449 | 0.437 | 0.445 | 0.44 | 0.388
NCI-H647 | 1.12 | 1.13 | 1.18 | 0.448 | 0.421 | 0.356 | 0.394 | 0.28 | 0.843 |  | 0.804 | 0.524 | 0.744 | 0.622 |  | 0.778 | 0.459 | 0.526
NCI-H650 | 1.06 | 0.997 | 1.18 | 1 | 0.323 | 0.307 | 0.392 | 0.279 | 0.999 |  | 0.948 | 0.454 | 0.534 | 1.11 |  | 0.997 | 0.656 | 0.778
NCI-H661 | 0.556 | 0.64 | 0.809 | 0.774 | 0.58 | 0.569 | 0.588 | 0.689 | 0.531 | 0.455 | 0.393 |  | 0.369 | 0.656 | 0.454 | 0.486 |  | 0.419
NCI-H727 | 0.633 | 0.615 | 0.593 | 0.328 | 0.756 | 1.02 | 0.865 | 0.726 | 0.659 | 0.843 | 0.951 |  | 0.667 | 0.398 | 0.535 | 0.46 |  | 0.493
NCI-H838 | 1.04 | 1.14 | 1.09 | 0.853 | 0.45 | 0.466 | 0.508 | 0.474 | 0.776 | 0.783 | 0.894 | 0.482 | 0.6 | 0.8 | 0.98 | 0.881 | 0.679 | 0.771
NCI-H1355 | 0.83 | 0.861 | 0.856 | 0.805 | 0.349 | 0.343 | 0.343 | 0.375 | 0.694 | 0.903 | 0.956 | 0.678 | 0.717 | 0.523 | 0.621 | 0.6 | 0.452 | 0.592
NCI-H1395 | 1.1 | 1.04 | 1.07 | 0.589 | 0.712 | 0.71 | 0.743 | 0.706 | 0.787 | 0.741 | 0.836 | 0.511 | 0.562 | 0.696 | 0.573 | 0.732 | 0.5 | 0.587
NCI-H1437 | 0.995 | 0.971 | 1.12 | 0.828 | 0.61 | 0.522 | 0.584 | 0.577 | 0.727 | 0.747 | 0.769 | 0.592 | 0.421 | 0.819 | 0.842 | 0.809 | 0.641 | 0.741
